Source: patent publication US10835549B2, “Polyplexes” (Vanderbilt University, priority 2013, dated 2020)
No end group written: not given here.

Tests used:
human saphenous vein = assay: HSV enhanced relaxation with AZX 100 (muscle bath, phenylephrine / sodium nitroprusside); conditions: 30 minutes incubation, n=3
rat aortic smooth muscle = assay: Rat aortic smooth muscle contraction (muscle bath, phenylephrine); conditions: 30 minutes incubation, phenylephrine challenge, n=6
Description: FIGS. 71-73 show the results of an example wherein rat aortic smooth muscle was suspended on a muscle bath apparatus. Tissue was equilibrated in bicarbonate buffer and challenged with KCl (110 mM) to confirm viability of the tissue. After returning the tissue to basal tension, the smooth muscle was challenged with 5*10^−8 M phenylephrine (5*10^−8 M) and then washed with bicarbonate buffer. The tissue was then returned to basal tension through subsequent washes of bicarbonate buffer and then either treated with control, AZX 100 peptide, or AZX polyplexes. After 30 minutes of incubation, the tissue was challenged with phenylephrine, and the contractile force was compared with the initial contraction to determine the percent inhibition that occurs. […] (n=6)

[1] = tested on: human bronchiolar airway smooth muscle (HASM); assay: Relaxation of human bronchiolar airway smooth muscle (HASM); set-up: unit not given here
HCAVSMCs = assay: Flow cytometric quantification of intracellular uptake and retention; conditions: HCAVSMCs, up to 5 days after treatment
Description: (§1) HCAVSMCs were grown to 80-90% confluence, harvested, and seeded at 20,000 cells per well in a 24-well plate and were allowed to adhere overnight in low serum media. […] Following treatment, cells were washed with PBS −/−, washed with CellScrub buffer (Genlantis) for 10 minutes at room temperature to remove extracellular polyplexes and/or peptide, washed 2× in PBS −/−, and the media was refreshed with complete growth media. Cells were then incubated for an additional 0, 12, 24, 72, or 120 hours. Cells were then washed with PBS −/−, trypsinized, and resuspended in 0.1% Trypan blue in PBS (−/−) for analysis on a FACSCalibur flow cytometer (Becton Dickinson) with BD CellQuest™ Pro software (V 5.2). Data was exported and analyzed with FlowJo software (V 7.6.4). All samples are run in triplicate.
(§2) Studies were done using a fluorescently labeled peptide and flow cytometry. […] Exponential lines were fit to each data set in order to determine a fluorescence half-life for each treatment group. Mean Fluorescence Intensity values were reported as increase in MFI compared to untreated controls, n=3.

[2] = as above; conditions: human
Description: as §1, §2

Substance	enhancement of relaxation (human saphenous vein)	inhibition of contraction (rat aortic smooth muscle)	Relaxation of HASM ([1]; HASM 11, .5 mM)	Relaxation of HASM ([1]; HASM 17, 1 mM)	Relaxation of HASM ([1]; HASM 17, .5 mM)	Relaxation of HASM ([1]; HASM 18, 1 mM)	Relaxation of HASM ([1]; HASM 20, 1 mM)	Relaxation of HASM ([1]; HASM 20, .5 mM)	Relaxation of HASM ([1]; HASM 22, 1 mM)	Relaxation of HASM ([1]; HASM 22, .5 mM)	intracellular retention of the peptide (HCAVSMCs)	half-life at 10 μM [2]
AZX 100 peptide: AZX100 peptide (SEQ ID NO: 2), which can be utilized for airway relaxation (YARAAARQARAWLRRASAPLPGLK; AZX-100 Sequence)	dose dependent enhancement of relaxation	dose dependent inhibition of contraction	24	25	10	80	76	36	84	40		
YARAAARQARAKALARQLGVAA [MK2i]											more rapidly lost intracellular peptide	98.4 h
